Assay results taken from patent US20110171279A1, “POLYETHYLENIMINE BIOCIDES” (NDSU RESEARCH FOUNDATION, priority 2009, published 2011).
In brackets after ≈: the same amount, converted by molar mass. Like-named read-outs stand apart in the source and are kept apart here.

What was measured:
Format in all cases: cell-based
Escherichia coli = assay: Growth reduction / MIC test against Escherichia coli in Luria-Bertani broth, absorbance 600 nm; conditions: for MIC: Escherichia coli, read-out: E. Coli MIC; for Percent reduction in growth of Escherichia coli: Table 3
Experimental: (§1) The antimicrobial properties of the Formulations were determined by measuring the minimum inhibitory concentration (MIC) or by using an adaptation of the MIC test. […] Additional details of the MIC method can be found at Andrews, J. M., Journal of Antimicrobial Chemotherapy (2001) 48, 5-16, incorporated herein by reference in its entirety.
In accordance with the MIC test, working solutions for each Formulation were prepared by dissolving 100 mg of each Formulation in 10 mL of methanol (Sigma-Aldrich) to generate a 10 mg/mL solution. Next, 10 ml of Luria-Bertani broth was spiked with 200 μL of the mg/mL Formulation solution to achieve a final concentration of 0.2 mg/mL.
0.2 mL of each concentration of each Formulation (spiked with E. coli) was added in triplicate to a 96-well plate. Additionally, 0.2 mL of Luria-Bertani broth without any E. coli or Formulation and 0.2 mL of Luria-Bertani broth with E. coli, but no Formulations, served as negative and positive growth controls, respectively. Plates were then placed in an incubator, at 37° C. for 24 hrs (with shaking), and then measured for growth by taking absorbance measurements at 600 nm with a multi-well plate spectrophotometer (Synergy HT). The efficacy of each Formulation was measured by determining the percent reduction in bacterial growth as a function of Formulation concentration.
Next, the antimicrobial activity of Formulations 69-77 and Reference 1 toward E. coli was measured by determining the percent reduction in bacterial growth as a function of concentration. The results for the examples were compared to various PEIs used to produce the examples.

Cellulophaga lytica = assay: Growth reduction / MIC test against Cellulophaga lytica; conditions: for MIC: Cellulophaga lytica; for Percent reduction in growth of Cellulophaga lytica: Table 5
Experimental: as §1
(§2) In accordance with the MIC test, working solutions for each Formulation were prepared by dissolving 100 mg of each Formulation in 10 mL of methanol (Sigma-Aldrich) to generate a 10 mg/mL solution. Next, 10 ml of Guillard's F/2 medium was spiked with 200 μL of the 10 mg/mL Formulation solution to achieve a final concentration of 0.2 mg/mL.
0.2 mL of each concentration of each Formulation (spiked with C. lytica) was added in triplicate to a 96-well plate. Additionally, 0.2 mL of Guillard's F/2 medium without any C. lytica or Formulation and 0.2 mL of Guillard's F/2 medium with C. lytica, but no Formulations, served as negative and positive growth controls, respectively. The 96-well plates were placed in an illuminated growth cabinet with a 16:8 light:dark cycle (photon flux density 33 μmol m^−2 s^−1) for 48 hrs at 18° C. and measured for chlorophyll fluorescence using a multi-well plate spectrophotometer (excitation: 360 nm; emission: 670 nm). The efficacy of each Formulation was measured by determining the percent reduction in diatom growth as a function of Formulation concentration.
(§3) The antimicrobial activity of Formulations 10-12, also derived from ETCS and PEI, was determined toward a suite of marine microorganisms, namely, Pseudoalteromonas atlantica, Cellulophaga lytica, Cobetia marina, and Halomonas pacifica. The antimicrobial activity of Formulations 10-12 was determined toward these marine microorganisms according to the methods of EXAMPLES 5-7. The MIC for each Formulation against each strain is compared to that of the PEI, ETCS, and TCS (alone) in Table 7.

Halomonas pacifica = assay: Growth reduction / MIC test against Halomonas pacifica; conditions: for MIC: Bisbaumannia pacifica; for Percent reduction in growth of Halomonas pacifica: Table 6
Experimental: as §1, §2
0.2 mL of each H. pacifica concentration was added in triplicate to a 96-well plate. Additionally, 0.2 mL of Guillard's F/2 medium without any H. pacifica or Formulation and 0.2 mL of Guillard's F/2 medium with H. pacifica, but no Formulations, served as negative and positive growth controls, respectively. The 96-well plates were placed in an illuminated growth cabinet with a 16:8 light:dark cycle (photon flux density 33 μmol m^−2 s^−1) for 48 hrs at 18° C. and measured for chlorophyll fluorescence using a multi-well plate spectrophotometer (excitation: 360 nm; emission: 670 nm). The efficacy of each Formulation was measured by determining the percent reduction in diatom growth as a function of Formulation concentration.
as §3

[1] = Formulation Concentration 0.78125 μg/mL
[2] = Formulation Concentration 1.5625 μg/mL
[3] = Formulation Concentration 3.125 μg/mL
[4] = Formulation Concentration 6.25 μg/mL
[5] = Formulation Concentration 12.5 μg/mL
[6] = Formulation Concentration 25 μg/mL
[7] = Formulation Concentration 50 μg/mL
[8] = Formulation Concentration 100 μg/mL

| Structure (SMILES) | Percent reduction in growth of Escherichia coli (Escherichia coli; [1]) [%] | Percent reduction in growth of Escherichia coli (Escherichia coli; [2]) [%] | Percent reduction in growth of Escherichia coli (Escherichia coli; [3]) [%] | Percent reduction in growth of Escherichia coli (Escherichia coli; [4]) [%] | Percent reduction in growth of Escherichia coli (Escherichia coli; [5]) [%] | Percent reduction in growth of Escherichia coli (Escherichia coli; [6]) [%] | Percent reduction in growth of Escherichia coli (Escherichia coli; [7]) [%] | Percent reduction in growth of Escherichia coli (Escherichia coli; [8]) [%] | Percent reduction in growth of Cellulophaga lytica (Cellulophaga lytica; [1]) [%] | Percent reduction in growth of Cellulophaga lytica (Cellulophaga lytica; [2]) [%] | Percent reduction in growth of Cellulophaga lytica (Cellulophaga lytica; [3]) [%] | Percent reduction in growth of Cellulophaga lytica (Cellulophaga lytica; [4]) [%] | Percent reduction in growth of Cellulophaga lytica (Cellulophaga lytica; [5]) [%] | Percent reduction in growth of Cellulophaga lytica (Cellulophaga lytica; [6]) [%] | Percent reduction in growth of Cellulophaga lytica (Cellulophaga lytica; [7]) [%] | Percent reduction in growth of Cellulophaga lytica (Cellulophaga lytica; [8]) [%] | Percent reduction in growth of Halomonas pacifica (Halomonas pacifica; [1]) [%] | Percent reduction in growth of Halomonas pacifica (Halomonas pacifica; [2]) [%] | Percent reduction in growth of Halomonas pacifica (Halomonas pacifica; [3]) [%] | Percent reduction in growth of Halomonas pacifica (Halomonas pacifica; [4]) [%] | other results |
| --- | --- | --- | --- | --- | --- | --- | --- | --- | --- | --- | --- | --- | --- | --- | --- | --- | --- | --- | --- | --- | --- |
| Clc1ccc(Oc2ccc(Cl)cc2OCC2CO2)c(Cl)c1 (stereo not shown) [ETCS, 2-((5-chloro-2-(2,4-dichlorophenoxy)phenoxy)methyl)oxirane] | 0.00 | 0.00 | 0.00 | 0.00 | 0.00 | 0.00 | 0.00 | 0.26 | 0.00 | 5.92 | 10.06 | 11.24 | 33.73 | 57.40 | 69.23 | 14.20 | 0.00 | 11.15 | 11.78 | 12.90 | MIC (Escherichia coli; Table 12): > 100 µg/mL; MIC (Cellulophaga lytica; Table 7, read-out: C. lytica MIC): > 100 µg/mL; C. lytica MIC (Cellulophaga lytica; Table 12): >100 µg/mL; MIC (Halomonas pacifica; Table 7, read-out: H. pacifica MIC): > 100 µg/mL; Percent reduction in growth of Halomonas pacifica (Halomonas pacifica; [5]): 16.72%; Percent reduction in growth of Halomonas pacifica (Halomonas pacifica; [6]): 16.08%; Percent reduction in growth of Halomonas pacifica (Halomonas pacifica; [7]): 7.01%; Percent reduction in growth of Halomonas pacifica (Halomonas pacifica; [8]): 0.00%; H. pacifica MIC (Halomonas pacifica; Table 12): >100 µg/mL |
| Oc1cc(Cl)ccc1Oc1ccc(Cl)cc1Cl [TCS, triclosan] | 14.66 | 52.34 | 93.43 | 93.93 | 93.43 | 93.93 | 93.93 | 93.93 | 12.29 | 32.40 | 59.78 | 86.87 | 86.87 | 87.15 | 87.15 | 86.59 | 0.00 | 0.00 | 0.00 | 9.94 | MIC (Escherichia coli): 0.781 µg/mL; MIC (Cellulophaga lytica; read-out: C. lytica MIC, Table 7): 6.25 to 12.5 µg/mL (≈ 21.6 to 43.2 µM); MIC (Cellulophaga lytica; read-out: C. lytica MIC, Table 12): 12.5 µg/mL (≈ 43.2 µM); MIC (Halomonas pacifica; read-out: H. pacifica MIC, Table 7): 50 to 100 µg/mL (≈ 173 to 345 µM); MIC (Halomonas pacifica; read-out: H. pacifica MIC, Table 12): 100 µg/mL (≈ 345 µM); Percent reduction in growth of Halomonas pacifica (Halomonas pacifica; [5]): 17.32%; Percent reduction in growth of Halomonas pacifica (Halomonas pacifica; [6]): 37.65%; Percent reduction in growth of Halomonas pacifica (Halomonas pacifica; [7]): 93.07%; Percent reduction in growth of Halomonas pacifica (Halomonas pacifica; [8]): 92.77% |
